Source: patent US20110021640A1 (priority 2009, published 2011)

Biological target: T1, calf spleen adenosine deaminase (Bos taurus, UniProt P56658)
T1 construct: The calf spleen adenosine deaminase (Specific Activity of 178 Units/mg protein) is purchased from Sigma Chemical Company; purchased Sigma Chemical Company, St Louis, Mo; host or cells: calf spleen (tissue-derived enzyme)
T1 sequence (P56658 1-363): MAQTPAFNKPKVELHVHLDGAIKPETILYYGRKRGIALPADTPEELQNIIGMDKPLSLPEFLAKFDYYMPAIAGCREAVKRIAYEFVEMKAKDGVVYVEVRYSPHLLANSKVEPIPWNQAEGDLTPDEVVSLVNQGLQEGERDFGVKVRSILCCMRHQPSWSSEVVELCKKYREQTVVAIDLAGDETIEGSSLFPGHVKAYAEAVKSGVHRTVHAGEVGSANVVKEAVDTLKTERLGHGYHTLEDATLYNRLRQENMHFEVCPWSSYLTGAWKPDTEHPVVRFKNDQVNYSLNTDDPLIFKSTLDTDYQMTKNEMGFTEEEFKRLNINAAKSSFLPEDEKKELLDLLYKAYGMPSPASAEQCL
Assay: Adenosine Deaminase (ADA) Assay, spectrophotometric at 265 nm
Format: biochemical
Details: Tris-HCl buffer 50 mM, pH 7.5, 25° C., adenosine substrate; dose-response (FIGS. 1 and 2); read-out: IC50, amount of the product per ml of the reaction mixture producing the enzyme inhibition by 50% (converted)
Method: The enzyme catalyzes the following reaction:
Adenosine+H2O→Inosine+NH3
The calf spleen adenosine deaminase (Specific Activity of 178 Units/mg protein) is purchased from Sigma Chemical Company, St Louis, Mo. The enzyme assay is carried out spectrophotometrically at 265 nm. The reaction mixture (in a 1-ml cuvette; diameter=1.0 cm) contains 0.9 ml of buffer (Tris-HCL buffer, 50 mM, pH 7.5), 25 μl of adenosine (2 mM), plus the enzyme, water and the extract to make 1 ml. The enzyme is added to start the reaction, and a decrease in absorbency at 265 nm is followed at 25° C. One unit of ADA activity is the amount of the enzyme that catalyzes 1 μmole of adenosine/min/ml of the reaction mixture.
The IC50 values have been determined by examining the dose-response effects of both products. The IC50 values represent the amount of the product per ml of the reaction mixture, producing the enzyme inhibition by 50%. In the enzyme assay, first a background reading is recorded on the chart for 1-2 min, followed by the addition of an appropriate amount of the enzyme to start the reaction, which is monitored spectrophotometrically.

In the case of `Oc1ccc(/C=C/c2cc(O)cc(O)c2)cc1` [resveratrol, 3,5,4′-trihydroxystilbene], the IC50 is reported as 50.8 µM.
